Laboratory results as given in patent US5658885A, “Amidino and guanidino substituted boronic acid inhibitors of trypsin-like enzymes” (The DuPont Merck Pharmaceutical Company, priority 1994, dated 1997).

Columns and labels:
[1] = molecular target: chymotrypsin (Bos taurus, UniProt P00766); conditions: Matteson et al. J. Am. Chem. Soc. 103: 5241 (1981); cited from earlier work
[2] = tested on: thrombin clotting times; experiment: Thrombin clotting time, concentration for 2-fold increase; format: biochemical; conditions: 2-fold increase of thrombin clotting time
[3] = molecular target: T1, human thrombin (Homo sapiens, UniProt P00734); experiment: Inhibition of thrombin hydrolysis of chromogenic substrate S2238 (Ki); format: biochemical; conditions: S2238, pH 7.5
T1 construct: 0.2-0.5 nM human thrombin or human factor Xa; purchased Enzyme Research Laboratories, South Bend, Ind
Outline: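 Purified human enzymes hydrolysing pNA substrates (thrombin S2238, factor Xa S2222, factor VIIa S2288), followed by absorbance at 405 nm over 30 min with velocities taken at 25-30 min. Thrombin and Xa were run in 0.10 M phosphate pH 7.5, 0.20 M NaCl, 0.5% PEG 8000. VIIa was run in 0.05 M Tris pH 7.6, 0.10 M NaCl, 4 mM CaCl2, 0.1% BSA, with Ki calculated from inhibited versus control velocities using substrate concentration and Km.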

[4] = molecular target: T2, human factor Xa (Homo sapiens, UniProt P00742); experiment: Inhibition of Factor Xa hydrolysis of chromogenic substrate S2222 (Ki); format: biochemical; conditions: S2222, pH 7.5
T2 construct: 0.2-0.5 nM human thrombin or human factor Xa; purchased Enzyme Research Laboratories, South Bend, Ind
Protocol: (§1) The effectiveness of compounds of the present invention as inhibitors of blood coagulation proteases was determined using purified human proteases and synthetic substrates following procedures similar to those described in Kettner et al. (1990).
(§2) For these assays, the rate of enzymatic (thrombin, Factor Xa, and Factor VIIa) hydrolysis of chromogenic substrates (S2238 (H-D-Phe-Pip-Arg-pNA), S2222, and S2288, respectively; Kabi Pharmacia, Franklin, Ohio) was measured both in the absence and presence of compounds of the present invention. […] A decrease in the rate of absorbance change at 405 nm in the presence of inhibitor is indicative of enzyme inhibition. The results of this assay are expressed as inhibitory constant, Ki.
(§3) Thrombin and Xa determinations were made in 0.10M sodium phosphate buffer, pH 7.5, containing 0.20M NaCl, and 0.5% PEG 8000. VIIa determinations were made in 0.05M tris buffer, pH 7.6, containing 0.10M NaCl, 4 mM CaCl2, and 0.1% bovine serum albumin.
(§4) Reactions were allowed to go for 30 minutes and the velocities (rate of absorbance change vs time) were measured in the time frame of 25-30 minutes. The following relationship was used to calculate Ki values. [formula] where: vo is the velocity of the control in the absence of inhibitor;
(§5) vs is the velocity in the presence of inhibitor;
(§6) I is the concentration of inhibitor;
(§7) Ki is the dissociation constant of the enzyme: inhibitor complex;
(§8) S is the concentration of substrate;
(§9) Km is the Michaelis constant.

[5] = molecular target: T3, human factor VIIa (Homo sapiens, UniProt P08709); experiment: Inhibition of Factor VIIa hydrolysis of chromogenic substrate S2288 (Ki); format: biochemical; conditions: S2288, pH 7.6
T3 construct: 50 nM human factor VIIa (BiosPacific, Emeryville, Calif.); purchased BiosPacific, Emeryville, Calif
T3 sequence (P08709 213-466 limits assumed): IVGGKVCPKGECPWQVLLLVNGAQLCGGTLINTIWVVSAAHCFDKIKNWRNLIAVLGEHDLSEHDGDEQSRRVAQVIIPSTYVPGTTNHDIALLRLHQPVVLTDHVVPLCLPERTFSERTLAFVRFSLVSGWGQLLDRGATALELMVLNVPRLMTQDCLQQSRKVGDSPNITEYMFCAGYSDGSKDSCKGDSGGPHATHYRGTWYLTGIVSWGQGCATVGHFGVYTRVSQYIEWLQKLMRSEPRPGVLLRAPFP
T3 sequence (P08709 61-212 limits assumed): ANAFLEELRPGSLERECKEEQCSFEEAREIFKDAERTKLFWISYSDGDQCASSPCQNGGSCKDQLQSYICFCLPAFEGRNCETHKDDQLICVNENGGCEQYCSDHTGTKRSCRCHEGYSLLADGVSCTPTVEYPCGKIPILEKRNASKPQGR
Protocol: as §1, §2, §3, §4, §5, §6, §7, §8, §9

[6] = tested on: activated partial thromboplastin time; experiment: Anticoagulant effect in vivo: prolongation of activated partial thromboplastin time of blood samples after dosing; design: species or system conscious dogs or anesthetized rats; conditions: 0.5 to 10 mg/kg, dogs or rats
Protocol: Arterial or venous blood was withdrawn by syringe and mixed with 1/10 volume 3.2% sodium citrate. Plasma was obtained after centrifugation and a standard clinical activated partial thromboplastin time (APTT reagent, Sigma Chemical Co., St. Louis, Mo.) determined at 37° C. in a fibrometer.

[7] = tested on: thrombin clotting times; experiment: Anticoagulant effect in vivo: identical model, activity measured by increases in thrombin clotting times; design: species or system conscious dogs or anesthetized rats; conditions: oral administration

T2 sequence (P00742 235-488 limits assumed): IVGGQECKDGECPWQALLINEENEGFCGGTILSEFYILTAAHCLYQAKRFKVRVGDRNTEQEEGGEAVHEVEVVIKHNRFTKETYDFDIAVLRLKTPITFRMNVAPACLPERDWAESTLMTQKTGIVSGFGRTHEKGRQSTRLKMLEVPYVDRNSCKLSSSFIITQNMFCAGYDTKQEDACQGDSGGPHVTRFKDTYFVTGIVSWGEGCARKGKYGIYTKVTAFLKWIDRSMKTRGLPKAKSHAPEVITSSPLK
T2 sequence (P00742 41-179 limits assumed): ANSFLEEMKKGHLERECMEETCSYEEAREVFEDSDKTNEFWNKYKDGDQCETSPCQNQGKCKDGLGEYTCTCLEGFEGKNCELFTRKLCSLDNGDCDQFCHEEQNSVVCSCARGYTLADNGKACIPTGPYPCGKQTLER

Ki [3] [µM] | Molecule | concentration that increased thrombin clotting times 2-fold [2] [µM] | anticoagulant response (at least doubling of activated partial thromboplastin time vs. pre-dose) ([6]; oral dosing) | further results
 | CC(=O)N[C@@H](Cc1ccccc1)B(O)O [Ac-boroPhe--OH, R-1-acetamido-2-phenylethane boronic acid] |  |  | Ki [1]: 4 µM
< 0.5 | CC(=O)NC(Cc1ccccc1)C(=O)N1CCCC1C(=O)NC(CCCNC=N)B1OC2CC3CC(C3(C)C)C2(C)O1.Cl (centres unmarked) [Example 3, Ac--(D)Phe--Pro--boroOrn(CH=NH)]--C10 H16.HCl] | 0.25 |  | 
< 0.5 | CC(=O)NC(Cc1ccccc1)C(=O)N1CCCC1C(=O)NC(Cc1cccc(C#N)c1)B1OC2CC3CC(C3(C)C)C2(C)O1 (centres unmarked) [Example 11, Ac--(D)Phe--Pro--boroPhe--(m-CN)--C10 H16] | 0.60 |  | Ki [4]: < 50 µM; Ki [5]: < 0.5 µM
< 0.5 | CC(=O)NC(Cc1ccccc1)C(=O)N1CCCC1C(=O)NC(Cc1cccc(C(=N)N)c1)B1OC2CC3CC(C3(C)C)C2(C)O1.O=S(=O)(O)c1ccccc1 (centres unmarked) [Example 12, Ac--(D)Phe--Pro--boroPhe--(m-C(NH)NH2)--C10 H16.BSA] | 0.85 |  | 
< 0.5 | CS(=O)(=O)N[C@H](Cc1ccccc1)C(=O)N1CCC[C@H]1C(=O)N[C@@H](CCCNC=N)B(O)O.Cl [Example 57, Ms--(D)Phe--Pro--boroOrn(CH=NH)--OH.HCl] |  | effective | anticoagulant response (at least doubling of activated partial thromboplastin time vs. pre-dose) ([6]; i.v. dosing): effective
< 0.5 | CS(=O)(=O)N[C@H](Cc1ccc(F)cc1)C(=O)N1CCC[C@H]1C(=O)N[C@@H](CCCNC=N)B(O)O.Cl [Example 60, Ms--(D)Phe(4-fluoro)-Pro--boroOrn(CH=NH)--OH.HCl] |  | effective | 
< 0.5 | CCCCS(=O)(=O)NC(Cc1ccccc1)C(=O)N1CCCC1C(=O)NC(CCCNC=N)B(O)O.Cl (centres unmarked) [Example 66, CH3 (CH2)3 SO2 --(D)Phe--Pro--boroOrn(CH=NH)--OH.HCl] |  | effective | 
 | Cl.N=CNCCCC(NC(=O)C1CCCN1C(=O)C(Cc1ccccc1)NC(=O)OCc1ccccc1)B(O)O (centres unmarked) [Example 77, Z--(D)Phe--Pro--boroOrn(CH=NH)--OH.HCl] |  |  | anticoagulant response (at least doubling of activated partial thromboplastin time vs. pre-dose) ([6]; i.v. dosing): effective
< 0.5 | Ac--(D)Phe--Pro--boroArg(CH3)--OH.HCl [Example 54] |  |  | elevation in anticoagulant activity measured by increases in thrombin clotting times [7]: ≥ 2 fold
< 0.5 | Ac--(D)Phe--Pro--boroOrn(CH=NH)]--OH.HCl [Example 4] |  | effective | Ki [4]: < 0.5 µM; Ki [5]: < 0.5 µM; anticoagulant response (at least doubling of activated partial thromboplastin time vs. pre-dose) ([6]; i.v. dosing): effective
< 0.5 | Boc--(D)Phe--Pro--boroOrn(CH=NH)]--OH.0.6 HCl.0.4 BSA [Example 7] | < 0.075 |  | Ki [4]: < 0.5 µM; Ki [5]: < 0.5 µM
< 0.5 | H--(D)Phe--Pro--boroOrn(CH=NH)]--OH.0.65 HCl.0.35 BSA [Example 9] | 0.10 |  | 
< 0.5 | Ms--(D)Phe--Pro--boroArg(CH3)--OH.HCl [Example 56] |  | effective | 
< 0.5 | Ms--(D)Thiazolylalanine-Pro--boroPhe(m-CN)--C10 H16 [Example 31] |  |  | Ki [4]: < 0.5 µM; elevation in anticoagulant activity measured by increases in thrombin clotting times [7]: ≥ 2 fold
